This data set in a line: gradient 5% acetonitrile 3 min, to 50% in 2 min, to 85% in 15 min, held 3 min, 100 µL/min. The following applies: column: Zorbax Extend-C18 2.1 x 50 mm; eluents: water / acetonitrile, 0.1% formic acid. The essentials: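 Pure standards were analyzed in mixtures of ~100 molecules using HPLC coupled to a quadrupole time-of-flight mass spectrometer, in both positive and negative ionization mode. Separation used a Zorbax Extend-C18 column (2.1 × 50 mm, 1.8 μm) at 100 μL/min, with water and acetonitrile each containing 0.1% formic acid. Dead and dwell volumes were 40 μL and 900 μL, and data were collected over 3 months. Retention time was read from computationally picked adduct peaks, each inspected manually.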
`CN(C1CCc2nn(CC3CC3)c(=O)n2CC1)S(=O)(=O)c1ccccc1Cl` (stereo not drawn) returned an RP-LC retention time of 796 s. The figure for `Cc1ccc(NC(=O)C2CCCN2S(=O)(=O)c2cc3c(cc2C)NC(=O)C(C)O3)cc1Cl` (stereo not drawn) is 892 s; for `COc1ccccc1CCNC(=O)C1CN(C(=O)c2c[nH]c3ccccc23)C1` it is 673 s; for `COc1ccc(NC(=O)N2CCCC(Cn3cnc4cccnc43)C2)cc1` (stereo not drawn) it is 610 s. With `Cc1noc(-c2cc(=O)n(CC(=O)Nc3cc(Cl)ccc3C)c3ccccc23)n1`, the RP-LC retention time stood at 942 s.

Turning to `CCc1ccccc1N1C(=O)CN(S(C)(=O)=O)CC1(C)C(=O)NCc1ccc(Cl)cc1` (stereo not drawn), the RP-LC retention time worked out at 893 s. As to `Cc1ccc(C(=O)NC2CCN(c3ccc(C)cc3)C2=O)cc1` (stereo not drawn), the RP-LC retention time was 825 s. In the case of `CCN1CCCn2nc(C3CCN(S(=O)(=O)c4cnc[nH]4)CC3)cc2C1=O` it was 592 s. In the case of `CCOc1ccc(C(=O)N2C[C@@H]3C[C@H](NC(=O)c4cccs4)[C@H]2C3)cc1` it was 783 s; in that of `COc1ccc(NS(=O)(=O)c2ccc3c(c2)C(=O)N(C)c2ncccc2O3)c(C)c1`, 898 s.

Consider `Cc1ccc(-c2ccc3nn(CC(=O)NC4CCCCC4)c(=O)n3n2)cc1C`, for which the RP-LC retention time is 792 s. The figure for `CCS(=O)(=O)Nc1cccc(C2=NN(S(=O)(=O)CC)C(c3ccco3)C2)c1` (stereo not drawn) is 753 s; for `Cc1cccc(NC(=O)Cn2c(C)nc3c(sc4nc(-c5ccccc5)ccc43)c2=O)c1` it is 880 s; for `COc1cccc(NC(=O)c2c(O)c3cccnc3n(-c3ccccc3)c2=O)c1` it is 1220 s. In the case of `Cc1cccc(N2CCN(c3ccc4cc(S(=O)(=O)N5CCOCC5)ccc4n3)CC2)c1C` it was 1080 s; in that of `Cc1ccc(NC(=O)C2(C)CCCCC(=O)N2)cc1` (stereo not drawn), 696 s.

Compound `COc1cc(-c2noc(Cn3cnc4c(cnn4-c4ccc(F)cc4)c3=O)n2)cc(OC)c1OC` displayed an RP-LC retention time of 938 s. In the case of `Cc1sc2ccn(CC(C)C)c(=O)c2c1C(=O)NCc1ccccc1` it was 930 s. For `CC1CCN(CCNC(=O)Cn2c(=O)n(-c3ccc(F)cc3)c3ncccc32)CC1`, the RP-LC retention time stood at 614 s. The figure for `COc1ccccc1-c1[nH]ncc1CN1CC(F)(F)C[C@H]1CN1CCOCC1` is 555 s; for `O=C(Nc1cccc(C(=O)N2CCN(c3cccc(Cl)c3)CC2)c1)C1=CSCCO1` it is 953 s; for `COc1ccccc1CNC(=O)c1nnc(-c2ccc(S(=O)(=O)N3CCC(C)CC3)cc2)o1` it is 1020 s. The figure for `Cc1ccc(C(C)C)c(OCC(=O)Nc2ccc(C(=O)O)cc2)c1` is 929 s. The figure for `COC(=O)c1c(C)[nH]c(C(=O)N2CCC(CC(=O)NCc3ccc(OC)cc3)CC2)c1C` is 715 s.

For the compound `CC(CCc1ccccc1)NC(=O)CCC(=O)N1CCCn2nc(-c3cccn3C)cc21` (stereo not drawn), the RP-LC retention time turned out to be 842 s. Regarding `CCCCN1CC(c2nc3ccccc3n2CC(=O)N(c2ccccc2)C(C)C)CC1=O` (stereo not drawn), the RP-LC retention time is 792 s. In the case of `CCCCN(CC)C(=O)Cn1c(=O)c2cnc(-c3ccccc3)nc2n(C)c1=O` it was 1070 s. On to `CN(CC1CCOC1)C(=O)Nc1c(F)cccc1F` (stereo not drawn), for which the RP-LC retention time was 638 s. The figure for `O=C(c1nnc(-c2ccc(S(=O)(=O)N3CCCCC3)cc2)o1)N1CCCC1` is 760 s; for `COCCN1C(=O)CCc2cc(NS(=O)(=O)c3ccc(Cl)s3)ccc21` it is 793 s. In the case of `CCn1nc(C)c(S(=O)(=O)N2CCN(C(=O)C3(c4ccc(OC)cc4)CC3)CC2)c1C` it was 797 s. The figure for `CCn1cc(CCNC(=O)Nc2ccc(OC)cc2OC)c2cccnc21` is 649 s. The compound `CC1CCN(c2nc3c(c(=O)n(C)c(=O)n3C)n2Cc2ccc(Br)cc2)CC1` returned an RP-LC retention time of 1250 s.

With `COc1ccc2c(c1)C1(CCN(C(=O)Nc3ccc(C)cc3)C1)C(=O)N2` (stereo not drawn), the RP-LC retention time came out at 745 s. In the case of `O=C(CN1C(=O)CCCc2cc(S(=O)(=O)N3CCCCC3)ccc21)Nc1ccc(F)c(Cl)c1` it was 1000 s; in that of `Cc1ccccc1OCCCC(=O)Nc1nc(-c2ccccc2)cs1`, 1180 s. In the case of `Cc1ccc2cc(CCC(=O)O)c(=O)[nH]c2c1` it was 758 s. The figure for `Cc1cc(C)cc(C(=O)N2CC3CN(S(=O)(=O)c4ccccc4)CC(C2)O3)c1` is 892 s; for `Cn1c(=O)c(=O)n(C)c2cc(N3CCCCC3)c(NC(=O)CN3CCOCC3)cc21` it is 608 s; for `CC1CCCCN1CCNC(=O)c1csc(-c2ccc(N3CCCC3)nc2)n1` (stereo not drawn) it is 557 s. As to `COc1ccccc1C(=O)NCc1ccc2c(c1)ncn2C(C)C`, the RP-LC retention time was 603 s. The figure for `Cc1cc2c(cc1S(=O)(=O)N1CCCC1C(=O)N1CCc3ccccc31)OC(C)C(=O)N2` (stereo not drawn) is 825 s. In turn, `O=C(NC1CCCCC1)C1CCN(C(=O)c2ncn3c2COC(c2ccc(F)cc2)C3)CC1` (stereo not drawn) came in with an RP-LC retention time of 784 s.

Turning to `O=C(Nc1ccccc1F)N1CCCC(Cn2c(C3CC3)nc3cccnc32)C1` (stereo not drawn), the RP-LC retention time stood at 656 s. The figure for `CC(C)n1c(C2CCN(C(=O)c3cccc(N(C)C)c3)C2)nc2ccncc21` (stereo not drawn) is 529 s; for `CCCCN1C(=O)C(CC(=O)NC(C)C)Sc2ncccc21` (stereo not drawn) it is 742 s.

In turn, `COc1ccc(CCC(=O)Nc2cc(-c3cccnc3)no2)cc1` had an RP-LC retention time of 756 s. The compound `COc1ccc(-c2cc(N3CCN(C(=O)Nc4ccc(OC)c(OC)c4)CC3)ncn2)cc1` gave an RP-LC retention time of 620 s. The figure for `CCOc1ccccc1-n1ccn(Cc2nc(-c3cccc(OC)c3)no2)c(=O)c1=O` is 856 s; for `Cc1cccc(Nc2nc(C(=O)N3CCC(C(N)=O)CC3)cs2)n1` it is 572 s. The figure for `Cc1ccc(C)c(-c2cc3c(=O)n(Cc4noc(-c5ccccc5)n4)ccn3n2)c1` is 860 s. The figure for `COC(=O)CSc1ccc(NC(C)=O)nn1` is 577 s; for `CC(C)(C)C(=O)Nc1ccc(NC(=O)C(C)(C)C)cc1` it is 838 s; for `Cc1ccc(C)c(S(=O)(=O)N2CCC3(CC2)NCCCN=C3NC2CCCCC2)c1` it is 648 s. `COc1ccc(Nc2c(C(=O)N3CCCCCC3)cnc3nc(C)ccc23)cc1` gave an RP-LC retention time of 638 s. In the case of `Cc1nn(-c2ccc(F)cc2)c(C)c1S(=O)(=O)N1CCC(C(=O)N2CCCCC2)CC1` it was 914 s; in that of `CC(=O)N1CCc2cc(N3CC(C(=O)Nc4ccc(C)cc4Cl)CC3=O)ccc21` (stereo not drawn), 735 s. In the case of `O=C1CCC2(CNC(=O)c3n[nH]c(=O)c4ccccc34)CCCC=C2N1` (stereo not drawn) it was 634 s.
